Test [1] relates to Mycobacterium tuberculosis. Briefly: Antitubercular activity against Mycobacterium tuberculosis H37Rv ATCC27294 assessed as complete cessation of growth. The class given is functional. The following applies: H37Rv ATCC 27294.
The nature of test [2]: Cytotoxicity against mouse macrophage cell line J774.1 (ATCC TIB-67) for 3 days by Alamar Blue. The settings on record: 72 h. In kind it is cell-based. For orientation: The colour change of resazurin is a common sign of viable cells or microbes.

Values after ≈ are worked out from the molar mass of the structure shown. Where only a bound is given, the exact number is not on record here.

We go through 18 compounds from ChEMBL document CHEMBL2311418, “Structure-activity relationships of antitubercular salicylanilides consistent with disruption of the proton gradient via proton shuttling” (Bioorg Med Chem, 2013).

As a reminder, the MIC is the least concentration at which growth counts as inhibited. What is called IC50 is the concentration that gives 50% inhibition. Read a low IC50 as higher potency. In the case of `NC(=O)c1cccc(NC(=O)c2cc(Cl)ccc2O)c1`, in test [1], the minimal inhibitory concentration (MIC) is over 50 µM. In test [2], the half-inhibitory concentration (IC50) was over 60 µM.

Take `O=C(Nc1cc(C(F)(F)F)cc(C(F)(F)F)c1)c1cc(F)ccc1O`: the MIC in test [1] stood at 3.1 µM (≈ 1.14 µg/mL). The compound also registered an IC50 in test [2] of 2.5 µM.

On to `Cc1cc(NS(=O)(=O)c2ccc(NC(=O)c3cc(Cl)ccc3O)cc2)no1`, for which the MIC in test [1] was over 50 µM. Moreover, in test [2], the IC50 is over 60 µM.

For `O=S(=O)(Nc1cc(C(F)(F)F)cc(C(F)(F)F)c1)c1cc(Cl)ccc1O`, in test [1], the MIC is at least 50 µM. In addition, 23 µM corresponded to half-maximal inhibition in test [2] (IC50).

Take `O=C(Nc1cc(C(F)(F)F)ccc1F)c1cc(F)ccc1O`: in test [1], the minimal inhibitory concentration (MIC) amounted to 6.3 µM (≈ 2 µg/mL). This compound also gave an IC50 in test [2] of 5.1 µM.

Turning to `CCOC(=O)c1cccc(NC(=O)c2cc(Cl)ccc2O)c1`, the MIC in test [1] was 13 µM (≈ 4.16 µg/mL). In test [2], this compound showed an IC50 of 17 µM.

On to `Cc1ccc(O)c(C(=O)Nc2cc(C(F)(F)F)cc(C(F)(F)F)c2)c1`, for which the minimal inhibitory concentration (MIC) in test [1] turned out to be 6.3 µM (≈ 2.29 µg/mL). In test [2], this compound had an IC50 of 5.4 µM.

As for `O=C(Nc1ccc(Cl)c(C(F)(F)F)c1)c1cc(Cl)ccc1O`, the MIC in test [1] was 1.6 µM (≈ 0.56 µg/mL). The compound further yielded an IC50 in test [2] of 4.5 µM.

On to `O=C(Nc1cccc(C(F)(F)F)c1)c1cc(Cl)ccc1O`, for which the MIC in test [1] worked out at 3.1 µM (≈ 0.979 µg/mL). The compound also registered an IC50 in test [2] of 5.9 µM.

For `O=C(Nc1cc(C(F)(F)F)cc(C(F)(F)F)c1)c1ccccc1Cl`, the MIC in test [1] is over 50 µM. The IC50 in test [2] is over 1.7 µM.

Take `O=C(Nc1ccc(Br)c(C(F)(F)F)c1)c1cc(Cl)ccc1O`: the MIC in test [1] is 3.1 µM (≈ 1.22 µg/mL). For the same compound, 4.5 µM corresponded to half-maximal inhibition in test [2] (IC50).

With `O=C(Nc1ccc(F)c(Cl)c1)c1cc(Cl)ccc1O`, the MIC in test [1] stood at 3.1 µM (≈ 0.93 µg/mL). In test [2], the concentration for half-maximal inhibition (IC50) is 4.4 µM.

With `O=C(Nc1cc(Br)cc(C(F)(F)F)c1)c1cc(F)ccc1O`, in test [1], the MIC came out at 3.1 µM (≈ 1.17 µg/mL). The same compound yielded an IC50 in test [2] of 4.7 µM.

For `O=C(Nc1cc(C(F)(F)F)cc(C(F)(F)F)c1)c1cccc(O)c1O`, the MIC in test [1] is over 50 µM. The same compound came in with an IC50 in test [2] of 1.7 µM.

On to `O=C(NCc1cc(C(F)(F)F)cc(C(F)(F)F)c1)c1cc(Cl)ccc1O`, for which the MIC in test [1] worked out at 6.3 µM (≈ 2.51 µg/mL). Also, half-maximal inhibition in test [2] (IC50) was put at 27 µM.

In the case of `O=C(Nc1cccc(F)c1F)c1cc(Cl)ccc1O`, the MIC in test [1] was 13 µM (≈ 3.69 µg/mL). The same compound came in with an IC50 in test [2] of 13 µM.

Consider `COc1cc(NC(=O)c2cc(Cl)ccc2O)c(Cl)cc1Cl`, for which the MIC in test [1] stood at 13 µM (≈ 4.51 µg/mL). The same compound came in with an IC50 in test [2] of 8 µM.

Consider `O=C(Nc1cc(C(F)(F)F)cc(C(F)(F)F)c1)c1cccc(Cl)c1`, for which the MIC in test [1] is over 50 µM. This compound also returned an IC50 in test [2] of over 60 µM.
